Measured values published in patent US8440819B2, “Therapeutic substituted beta-lactams” (Allergan, Inc., priority 2008, dated 2013).

Experiments:
normotensive dogs = experiment: Intraocular pressure and ocular surface hyperemia in normotensive dogs; format: in vivo, dog; conditions: 0.01%, once daily for 5 days
Protocol: (§1) U.S. Pat. No. 7,091,231 describes the methods used to carry out the tests reported below.
(§2) Isopropyl (5-(3-((2S)-1-(4-(1-hydroxyhexyl)phenyl)-4-oxoazetidin-2-yl)propyl)thiophene-2-carboxylate (12) was tested in normotensive dogs at 0.01%, dosing once daily for 5 days. The maximum intraocular pressure (IOP) decrease from baseline was 3.7 mmHg (25%) at 6 h; the maximum ocular surface hyperemia (OSH) score was 1.7 at 50 h. This compound was also tested in laser-induced hypertensive monkeys, using one single day dose. At 0.01%, the maximum IOP decrease from baseline was 12.6 mmHg (35%) at 24 h.

[1] = test system: laser-induced hypertensive monkeys; experiment: Intraocular pressure in laser-induced hypertensive monkeys; format: in vivo, monkey; conditions: 0.01%, one single day dose, at 24 h
Protocol: as §1, §2

hEP3A = target: T1, hEP3A (Homo sapiens, UniProt P43115); experiment: Other receptors functional EC50, hEP3A; format: cell-based
T1 sequence (P43115 1-390): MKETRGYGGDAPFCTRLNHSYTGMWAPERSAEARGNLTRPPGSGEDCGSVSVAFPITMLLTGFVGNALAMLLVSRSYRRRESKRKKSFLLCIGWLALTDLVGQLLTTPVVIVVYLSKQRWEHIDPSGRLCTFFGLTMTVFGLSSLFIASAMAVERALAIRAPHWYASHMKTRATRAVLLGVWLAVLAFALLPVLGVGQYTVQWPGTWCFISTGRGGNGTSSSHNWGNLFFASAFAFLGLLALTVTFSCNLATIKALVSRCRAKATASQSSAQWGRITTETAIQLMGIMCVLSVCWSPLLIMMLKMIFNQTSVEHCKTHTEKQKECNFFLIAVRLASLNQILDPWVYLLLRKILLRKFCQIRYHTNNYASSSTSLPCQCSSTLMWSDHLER
From the text: (§3) U.S. patent application Ser. No. 11/553,143, filed on Oct. 26, 2006, incorporated by reference herein, describes the methods used to obtain the in vitro data in Table 1 below.

EP2 [2] = target: T2, EP2 (Homo sapiens, UniProt P43116); experiment: EP2 binding (Ki)
T2 sequence (P43116 whole entry): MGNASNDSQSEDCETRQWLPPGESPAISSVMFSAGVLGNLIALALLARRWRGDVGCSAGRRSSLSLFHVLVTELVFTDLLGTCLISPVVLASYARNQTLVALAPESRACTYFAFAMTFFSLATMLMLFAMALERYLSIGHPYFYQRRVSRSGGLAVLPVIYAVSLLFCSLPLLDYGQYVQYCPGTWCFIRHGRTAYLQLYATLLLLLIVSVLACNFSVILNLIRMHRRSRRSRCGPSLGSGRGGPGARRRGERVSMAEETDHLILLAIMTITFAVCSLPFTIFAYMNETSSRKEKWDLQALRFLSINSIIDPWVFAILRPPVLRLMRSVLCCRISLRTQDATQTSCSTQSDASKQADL
From the text: as §3

EP4 [3] = target: T3, EP4 (Homo sapiens, UniProt P35408); experiment: EP4 flipr; format: cell-based
T3 sequence (P35408 whole entry): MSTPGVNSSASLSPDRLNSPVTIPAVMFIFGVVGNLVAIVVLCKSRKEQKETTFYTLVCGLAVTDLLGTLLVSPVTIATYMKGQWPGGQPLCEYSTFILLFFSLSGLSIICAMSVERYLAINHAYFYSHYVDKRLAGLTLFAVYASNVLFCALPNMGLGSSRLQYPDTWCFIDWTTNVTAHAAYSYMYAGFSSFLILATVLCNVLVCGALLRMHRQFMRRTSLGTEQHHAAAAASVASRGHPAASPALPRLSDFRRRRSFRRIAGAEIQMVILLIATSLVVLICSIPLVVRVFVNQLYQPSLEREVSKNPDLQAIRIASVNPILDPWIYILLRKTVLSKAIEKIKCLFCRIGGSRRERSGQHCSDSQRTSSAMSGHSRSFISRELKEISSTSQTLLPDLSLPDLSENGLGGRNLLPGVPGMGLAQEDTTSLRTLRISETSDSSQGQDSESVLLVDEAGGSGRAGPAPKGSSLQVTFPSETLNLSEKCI
From the text: as §3

EP2 [4] = target: T2, EP2; experiment: EP2 flipr; format: cell-based
From the text: as §3

EP2 [5] = target: T2, EP2; experiment: EP2 cAMP; format: cell-based
From the text: as §3

EP4 [6] = target: T3, EP4; experiment: EP4 binding (Ki); conditions: read-out: EP4 data Kl
From the text: as §3

hDP = target: T4, hDP (Homo sapiens, UniProt Q13258); experiment: Other receptors functional EC50, hDP; format: cell-based
T4 sequence (Q13258 1-359): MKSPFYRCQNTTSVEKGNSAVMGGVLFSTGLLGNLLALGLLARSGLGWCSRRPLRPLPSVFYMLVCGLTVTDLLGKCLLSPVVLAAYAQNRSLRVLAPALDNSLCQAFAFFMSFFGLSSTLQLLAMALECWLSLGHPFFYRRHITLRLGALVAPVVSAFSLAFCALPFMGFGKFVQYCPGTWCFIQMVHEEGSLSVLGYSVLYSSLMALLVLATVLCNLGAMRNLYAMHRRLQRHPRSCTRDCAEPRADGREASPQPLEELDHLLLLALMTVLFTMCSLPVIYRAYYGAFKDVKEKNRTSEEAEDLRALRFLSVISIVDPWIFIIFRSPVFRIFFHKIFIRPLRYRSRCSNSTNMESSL
From the text: as §3

Row | maximum ocular surface hyperemia (OSH) score (normotensive dogs; at 50 h) | EC50 (hEP3A) [nM] | Ki (EP2 [2]) [µM] | EC50 (EP4 [3]) [µM] | EC50 (EP2 [4]) [µM] | EC50 (EP2 [5]) [µM] | Ki (EP4 [6]) [µM] | EC50 (hDP) [nM] | SMILES | maximum intraocular pressure (IOP) decrease from baseline (normotensive dogs; at 6 h) [mmHg] | maximum intraocular pressure (IOP) decrease from baseline, percent (normotensive dogs; at 6 h) [%] | maximum IOP decrease from baseline [1] [mmHg] | maximum IOP decrease from baseline, percent [1] [%]
1 | 1.7 |  |  |  |  |  |  |  | CCCCCC(O)c1ccc(N2C(=O)C[C@@H]2CCCc2ccc(C(=O)OC(C)C)s2)cc1 (stereo partly drawn) [compound 12] | 3.7 | 25 | 12.6 | 35
2 |  | 42 | 0.01 | > 10 | 0.0011 | 0.0004 | 1.45 | 4740 | CCCCCC(O)c1ccc(N2C(=O)C[C@@H]2CCCc2ccc(C(=O)O)s2)cc1 (mixture of isomers) [compound 11] |  |  |  | 
